Reference: patent US20260285850A1, “SUBSTITUTED OXAZOLIDINONES AND IMIDAZOLINONES AS HERBICIDES” (FMC CORPORATION, priority 2023, published 2026)

How the values were obtained:
Assay type in all cases: in vivo
[1] = system: ryegrass, Italian (italian ryegrass, Lolium multiflorum); assay: Test A preemergence soil spray, visual injury rating 0-100; conditions: 10 days, 0 = no effect, 100 = complete control
Summary of the method: (§1)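 Scale 0–100 (no effect to complete control), visual, versus untreated controls, read 10 days after application. Application: preemergence directed spray onto seeded loam–sand soil, or postemergence to young plants; formulation in non-phytotoxic solvent with surfactant.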

[2] = system: wheat (Triticum aestivum); assay: as above; conditions: 10 days, 0 = no effect, 100 = complete control
Summary of the method: as §1

[3] = system: green foxtail (Setaria viridis); assay: as above; conditions: 10 days, 0 = no effect, 100 = complete control
Summary of the method: as §1

[4] = system: barnyardgrass (Echinochloa crus-galli); assay: as above; conditions: 10 days, 0 = no effect, 100 = complete control
Summary of the method: as §1

[5] = system: kochia (Bassia scoparia); assay: as above; conditions: 10 days, 0 = no effect, 100 = complete control
Summary of the method: as §1

[6] = system: palmer (palmer amaranth, palmer pigweed, Amaranthus palmeri); assay: as above; conditions: 10 days, 0 = no effect, 100 = complete control
Summary of the method: as §1

[7] = system: oat, wild (wild oat, Avena fatua); assay: as above; conditions: 10 days, 0 = no effect, 100 = complete control
Summary of the method: as §1

[8] = system: blackgrass (Alopecurus myosuroides); assay: as above; conditions: 10 days, 0 = no effect, 100 = complete control
Summary of the method: as §1

[9] = system: soybean (Glycine max); assay: as above; conditions: 10 days, 0 = no effect, 100 = complete control
Summary of the method: as §1

[10] = system: ragweed (common ragweed, Ambrosia artemisiifolia); assay: as above; conditions: 10 days, 0 = no effect, 100 = complete control
Summary of the method: as §1

[11] = system: corn (Zea mays); assay: as above; conditions: 10 days, 0 = no effect, 100 = complete control
Summary of the method: as §1

[12] = system: ryegrass, Italian (italian ryegrass, Lolium multiflorum); assay: Test A postemergence application, visual injury rating 0-100; conditions: Postemergence, 10 days, 0 is no effect, 100 is complete control
Summary of the method: as §1

[13] = system: galium (catchweed bedstraw, Galium aparine); assay: as above; conditions: Postemergence, 10 days, 0 is no effect, 100 is complete control
Summary of the method: as §1

[14] = system: wheat (Triticum aestivum); assay: as above; conditions: Postemergence, 10 days, 0 is no effect, 100 is complete control
Summary of the method: as §1

[15] = system: green foxtail (Setaria viridis); assay: as above; conditions: Postemergence, 10 days, 0 is no effect, 100 is complete control
Summary of the method: as §1

[16] = system: barnyardgrass (Echinochloa crus-galli); assay: as above; conditions: Postemergence, 10 days, 0 is no effect, 100 is complete control
Summary of the method: as §1

[17] = system: kochia (Bassia scoparia); assay: as above; conditions: Postemergence, 10 days, 0 is no effect, 100 is complete control
Summary of the method: as §1

[18] = system: palmer (palmer amaranth, palmer pigweed, Amaranthus palmeri); assay: as above; conditions: Postemergence, 10 days, 0 is no effect, 100 is complete control
Summary of the method: as §1

[19] = system: oat, wild (wild oat, Avena fatua); assay: as above; conditions: Postemergence, 10 days, 0 is no effect, 100 is complete control
Summary of the method: as §1

[20] = system: blackgrass (Alopecurus myosuroides); assay: as above; conditions: Postemergence, 10 days, 0 is no effect, 100 is complete control
Summary of the method: as §1

[21] = system: horseweed (Erigeron canadensis); assay: as above; conditions: Postemergence, 10 days, 0 is no effect, 100 is complete control
Summary of the method: as §1

[22] = system: soybean (Glycine max); assay: as above; conditions: Postemergence, 10 days, 0 is no effect, 100 is complete control
Summary of the method: as §1

[23] = system: ragweed (common ragweed, Ambrosia artemisiifolia); assay: as above; conditions: Postemergence, 10 days, 0 is no effect, 100 is complete control
Summary of the method: as §1

[24] = system: corn (Zea mays); assay: as above; conditions: Postemergence, 10 days, 0 is no effect, 100 is complete control
Summary of the method: as §1

[25] = system: rice (Oryza sativa); assay: Test B flooded paddy test, visual plant response rating 0-100; conditions: 250 g ai/ha, Flood, applied to paddy water, evaluated after 13 days
Summary of the method: (§2)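 Visual scores versus untreated controls were recorded 13 days after treatment of greenhouse-held plants. At the 2-leaf stage, pots were flooded 3 cm above the soil surface and compounds added straight to the water.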

[26] = system: ducksalad (Heteranthera limosa); assay: as above; conditions: 250 g ai/ha, Flood, applied to paddy water, evaluated after 13 days
Summary of the method: as §2

[27] = system: barnyardgrass (Echinochloa crusgalli); assay: as above; conditions: 250 g ai/ha, Flood, applied to paddy water, evaluated after 13 days
Summary of the method: as §2

[28] = system: sedge, umbrella (small-flower umbrella sedge, Cyperus difformis); assay: as above; conditions: 250 g ai/ha, Flood, applied to paddy water, evaluated after 13 days
Summary of the method: as §2

CCOC(=O)C1C=CC(NC(=O)C2(C)CN(c3cc(Cl)cc(Cl)c3)C(=O)O2)C1 (stereo not shown) [Compound 44]
Ryegrass, Italian plant response rating (0 to 100 scale) ([1]; 125 g ai/ha): 90
Ryegrass, Italian plant response rating (0 to 100 scale) ([1]; 500 g ai/ha): 100
Wheat plant response rating (0 to 100 scale) ([2]; 125 g ai/ha): 90
Wheat plant response rating (0 to 100 scale) ([2]; 500 g ai/ha): 90
Foxtail, Green plant response rating (0 to 100 scale) ([3]; 125 g ai/ha): 90
Foxtail, Green plant response rating (0 to 100 scale) ([3]; 500 g ai/ha): 100
Barnyardgrass plant response rating (0 to 100 scale) ([4]; 125 g ai/ha): 100
Barnyardgrass plant response rating (0 to 100 scale) ([4]; 500 g ai/ha): 100
Kochia plant response rating (0 to 100 scale) ([5]; 125 g ai/ha): 100
Kochia plant response rating (0 to 100 scale) ([5]; 500 g ai/ha): 100
Amaranth, Palmer plant response rating (0 to 100 scale) ([6]; 125 g ai/ha): 100
Amaranth, Palmer plant response rating (0 to 100 scale) ([6]; 500 g ai/ha): 100
Oat, Wild plant response rating (0 to 100 scale) ([7]; 125 g ai/ha): 80
Oat, Wild plant response rating (0 to 100 scale) ([7]; 500 g ai/ha): 90
Blackgrass plant response rating (0 to 100 scale) ([8]; 125 g ai/ha): 90
Blackgrass plant response rating (0 to 100 scale) ([8]; 500 g ai/ha): 100
Soybean plant response rating (0 to 100 scale) ([9]; 125 g ai/ha): 20
Soybean plant response rating (0 to 100 scale) ([9]; 500 g ai/ha): 70
Ragweed plant response rating (0 to 100 scale) ([10]; 125 g ai/ha): 10
Ragweed plant response rating (0 to 100 scale) ([10]; 500 g ai/ha): 60
Corn plant response rating (0 to 100 scale) ([11]; 125 g ai/ha): 70
Corn plant response rating (0 to 100 scale) ([11]; 500 g ai/ha): 90
Ryegrass, Italian plant response rating (0 to 100 scale) ([12]; 125 g ai/ha): 90
Ryegrass, Italian plant response rating (0 to 100 scale) ([12]; 500 g ai/ha): 80
Galium plant response rating (0 to 100 scale) ([13]; 125 g ai/ha): 70
Galium plant response rating (0 to 100 scale) ([13]; 500 g ai/ha): 70
Wheat plant response rating (0 to 100 scale) ([14]; 125 g ai/ha): 90
Wheat plant response rating (0 to 100 scale) ([14]; 500 g ai/ha): 90
Foxtail, Green plant response rating (0 to 100 scale) ([15]; 125 g ai/ha): 90
Foxtail, Green plant response rating (0 to 100 scale) ([15]; 500 g ai/ha): 90
Barnyardgrass plant response rating (0 to 100 scale) ([16]; 125 g ai/ha): 100
Barnyardgrass plant response rating (0 to 100 scale) ([16]; 500 g ai/ha): 100
Kochia plant response rating (0 to 100 scale) ([17]; 125 g ai/ha): 80
Kochia plant response rating (0 to 100 scale) ([17]; 500 g ai/ha): 80
Amaranth, Palmer / Pigweed, Palmer plant response rating (0 to 100 scale) ([18]; 125 g ai/ha): 100
Amaranth, Palmer / Pigweed, Palmer plant response rating (0 to 100 scale) ([18]; 500 g ai/ha): 100
Oat, Wild plant response rating (0 to 100 scale) ([19]; 125 g ai/ha): 90
Oat, Wild plant response rating (0 to 100 scale) ([19]; 500 g ai/ha): 90
Blackgrass plant response rating (0 to 100 scale) ([20]; 125 g ai/ha): 100
Blackgrass plant response rating (0 to 100 scale) ([20]; 500 g ai/ha): 100
Horseweed plant response rating (0 to 100 scale) ([21]; 125 g ai/ha): 90
Horseweed plant response rating (0 to 100 scale) ([21]; 500 g ai/ha): 90
Soybean plant response rating (0 to 100 scale) ([22]; 125 g ai/ha): 90
Soybean plant response rating (0 to 100 scale) ([22]; 500 g ai/ha): 80
Ragweed plant response rating (0 to 100 scale) ([23]; 125 g ai/ha): 70
Ragweed plant response rating (0 to 100 scale) ([23]; 500 g ai/ha): 80
Corn plant response rating (0 to 100 scale) ([24]; 125 g ai/ha): 100
Corn plant response rating (0 to 100 scale) ([24]; 500 g ai/ha): 100
Plant response rating, Rice (0 to 100 scale, 0 is no effect and 100 is complete control) [25]: 15
Plant response rating, Ducksalad (0 to 100 scale, 0 is no effect and 100 is complete control) [26]: 90
Plant response rating, Barnyardgrass (0 to 100 scale, 0 is no effect and 100 is complete control) [27]: 80
Plant response rating, Sedge, Umbrella (0 to 100 scale, 0 is no effect and 100 is complete control) [28]: 95
